Experimental data reported in patent publication US7517902B2, “Substituted indazoles, compositions containing the same, and the preparation and use thereof” (Aventis Pharma S.A., priority 2004, dated 2009).
Where a name gives a salt, the structure may show the parent alone. Values belong to the compound of their own block, whether it stands above or below them.

Assays:
Assay type in all cases: biochemical
[1] = biological target: T1, human KDR enzyme (Homo sapiens, UniProt P35968); assay: KDR substrate phosphorylation assay (scintillation, 96-well plate)
T1 construct: The cytoplasmic domain of the human KDR enzyme was cloned in the form of a GST fusion; GST; made in house; host or cells: SF21 insect cells (baculovirus, pFastBac)
Description: The inhibitory effect of the compounds is determined in an assay of substrate phosphorylation by the KDR enzyme in vitro using a scintillation technique (96-well plate, NEN).
The cytoplasmic domain of the human KDR enzyme was cloned in the form of a GST fusion into the baculovirus expression vector pFastBac. The protein was expressed in SF21 cells and purified to approximately 60% homogeneity.
The KDR kinase activity is measured in 20 mM MOPS, 10 mM MgCl2, 10 mM MnCl2, 1 mM DTT, 2.5 mM EGTA, 10 mM β-glycerophosphate, pH=7.2, in the presence of 10 mM MgCl2, 100 μM Na3VO4, 1 mM NaF. 10 μl of the compound are added to 70 μl of kinase buffer, containing 100 ng of KDR enzyme at 4° C. The reaction is triggered by adding 20 μl of solution containing 2 μg of substrate (SH2-SH3 fragment of PLCγ expressed in the form of a GST fusion protein), 2 μCi γ^33P[ATP] and 2 μM cold ATP. After 1 hour of incubation at 37° C., the reaction is stopped by adding 1 volume (100 μl) of 200 mM EDTA. The incubation buffer is withdrawn and the wells are washed three times with 300 μl of PBS. The radioactivity is measured in each well using a Top Count NXT radioactivity counter (Packard).
The background noise is determined by measuring the radioactivity in four different wells containing the radioactive ATP and the substrate alone.
A control for total activity is measured in four different wells containing all of the reagents (γ^33P-[ATP], KDR and PLCγ substrate), but in the absence of compound.
The inhibition of KDR activity with the compound of the invention is expressed in percentage inhibition of the control activity determined in the absence of compound.
The compound SU5614 (Calbiochem) (1 μM) is included in each plate as an inhibition control.

[2] = biological target: T2, human Tie2 (Homo sapiens, UniProt Q02763); assay: Tie2 assay of PLC phosphorylation (FlashPlate); conditions: read-out: IC 50 TIE2
T2 construct: amino acids of the intracellular domain 776-1124; made in house
Description: The coding sequence of human Tie2, corresponding to the amino acids of the intracellular domain 776-1124, was generated by PCR, using the cDNA isolated from human placenta as a model. This sequence was introduced into a baculovirus expression vector pFastBacGT in the form of a GST fusion protein.
The inhibitory effect of the molecules is determined in an assay of PLC phosphorylation by Tie2 in the presence of GST-Tie2 purified to approximately 80% homogeneity. The substrate is composed of the SH2-SH3 fragments of PLC expressed in the form of a GST fusion protein.
The kinase activity of Tie2 is measured in a 20 mM MOPS buffer, pH 7.2, containing 10 mM MgCl2, 10 mM MnCl2, 1 mM DTT, 10 mM of glycerol-phosphate. In a 96-well FlashPlate plate, kept on ice, a reaction mixture is deposited which is composed of 70 μl of kinase buffer containing 100 ng of GST-Tie2 enzyme per well. Subsequently 10 μl of the test molecule diluted to a concentration of 10% maximum in DMvSO are added. For a given concentration, each measurement is carried out in quadruplicate. The reaction is initiated by adding 20 μl of solution containing 2 μg of GST-PLC, 2 μM of cold ATP and 1 μCi of ^33P[ATP]. After 1 hour of incubation at 37° C., the reaction is terminated by adding 1 volume (100 μl) of 200 mM EDTA. Following removal of the incubation buffer, the wells are washed three times with 300 μl of PBS. The radioactivity is measured on a Wallac MicroBeta 1450.
The inhibition of Tie2 activity is calculated and expressed as a percentage inhibition relative to the control activity determined in the absence of compound.

[3] = biological target: T3, Aurora2 (Homo sapiens, UniProt O14965); assay: Aurora2 enzyme assay, NuMA substrate phosphorylation (Flashplate); conditions: read-out: IC 50 Aurora2
T3 construct: Aurora 2: whole recombinant protein comprising an N-terminal histidine tail; His tag (histidine tail) (N); made in house; host or cells: E. coli
T3 sequence (O14965 1-403): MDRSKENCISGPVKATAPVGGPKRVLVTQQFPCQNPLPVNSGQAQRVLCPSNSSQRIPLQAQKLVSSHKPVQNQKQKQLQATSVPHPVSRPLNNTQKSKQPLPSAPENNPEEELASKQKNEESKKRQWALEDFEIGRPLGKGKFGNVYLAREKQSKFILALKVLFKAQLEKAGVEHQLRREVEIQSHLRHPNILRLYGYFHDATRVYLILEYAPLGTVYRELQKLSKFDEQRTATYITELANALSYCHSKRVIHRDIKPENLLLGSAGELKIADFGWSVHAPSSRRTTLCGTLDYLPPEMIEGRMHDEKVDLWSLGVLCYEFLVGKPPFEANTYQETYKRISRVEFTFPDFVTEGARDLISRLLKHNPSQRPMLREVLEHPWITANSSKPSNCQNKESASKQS
Description: The inhibitory effect of compounds with respect to the kinases Aurora1 and Aurora2 is determined by an enzyme assay employing radioactivity detection.
The kinase activity of Aurora 1 and Aurora 2 is evaluated by the phosphorylation of the substrate Numa-histidine in the presence of radiolabeled ATP ([^33P]ATP), using 96-well Flashplate plates in which nickel chelate is fixed to the surface of the microplate. The amount of ^33P phosphate incorporated in the NuMA substrate is proportional to the activity of the enzyme Aurora1 or Aurora2.
The proteins are produced in the protein production laboratory of the SanofiAventis group.
Aurora 2: whole recombinant protein comprising an N-terminal histidine tail, expressed in E. coli and purified to more than 82%.
NuMA (nuclear protein that associates with the mitotic apparatus) fragment of 424 amino acids, expressed in E. coli, whose N-terminal end has been labeled with histidine and used as a substrate for the two Aurora enzymes.
The microplates used are 96-well Flash-Plate plates with nickel chelate (Perkin Elmer, model SMP107).
The products for evaluation are incubated in a reaction volume of 100 μL per well in the presence of 10 nM of Aurora 1 or Aurora 2, 500 nM of NuMA substrate in a buffer composed of 50 mM of Tris/HCl (pH 7.5), 50 mM NaCl, 5 mM MgCl2 (Aurora-B) or 10 mM MgCl2 (Aurora-A) and 1 mM of DTT, at 37° C.
In each well, 80 μL of the enzyme/substrate incubation buffer are distributed, followed by 10 μL of the product to be evaluated, in variable concentrations. The reaction is initiated by adding 1 μM of final ATP containing 0.2 μCi of [^33P]ATP (10 μL). After 30 minutes of incubation, the reaction is terminated by simply removing the reaction buffer and each well is washed twice with 300 μl of the Tris/HCl buffer. The radioactivity is then measured in each well by means of a scintillation apparatus, Packard, Top count model.
The control enzyme activity of Aurora is expressed by the number of counts per minute obtained within 30 minutes, after deduction of the background noise (reaction mixture not containing the enzyme). The evaluation of the various test products is expressed in percentage inhibition of the Aurora activity relative to the control.

T2 sequence (Q02763 776-1124): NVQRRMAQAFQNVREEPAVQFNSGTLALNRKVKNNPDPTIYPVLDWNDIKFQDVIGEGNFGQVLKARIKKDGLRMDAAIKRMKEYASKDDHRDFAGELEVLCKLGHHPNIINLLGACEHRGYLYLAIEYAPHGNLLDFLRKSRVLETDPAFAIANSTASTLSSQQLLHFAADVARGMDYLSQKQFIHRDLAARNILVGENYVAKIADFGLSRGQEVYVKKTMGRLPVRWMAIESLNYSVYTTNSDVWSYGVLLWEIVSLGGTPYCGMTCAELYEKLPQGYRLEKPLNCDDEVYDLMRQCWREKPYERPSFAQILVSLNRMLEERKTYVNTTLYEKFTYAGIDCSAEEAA
T1 sequence (P35968 786-1356 limits assumed): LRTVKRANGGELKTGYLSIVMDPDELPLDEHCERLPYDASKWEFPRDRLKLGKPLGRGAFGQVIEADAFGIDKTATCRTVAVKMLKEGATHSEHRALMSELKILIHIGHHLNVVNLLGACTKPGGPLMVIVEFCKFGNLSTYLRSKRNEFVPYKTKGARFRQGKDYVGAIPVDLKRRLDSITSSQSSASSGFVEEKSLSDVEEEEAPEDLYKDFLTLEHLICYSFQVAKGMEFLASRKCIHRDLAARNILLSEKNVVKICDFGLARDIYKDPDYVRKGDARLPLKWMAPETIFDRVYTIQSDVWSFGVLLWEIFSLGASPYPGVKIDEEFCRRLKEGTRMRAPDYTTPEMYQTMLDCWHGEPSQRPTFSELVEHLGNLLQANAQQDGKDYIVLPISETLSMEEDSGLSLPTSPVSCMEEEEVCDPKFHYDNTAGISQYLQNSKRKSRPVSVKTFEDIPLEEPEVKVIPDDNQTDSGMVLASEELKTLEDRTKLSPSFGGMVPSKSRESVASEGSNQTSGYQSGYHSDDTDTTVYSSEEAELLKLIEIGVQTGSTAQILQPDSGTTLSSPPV

SMILES: O=C(Nc1ccc(-c2ccc3c(NC(=O)C4CCCN4)n[nH]c3c2F)cc1)Nc1cc(C(F)(F)F)ccc1F [Example 26, 1-(4-{7-Fluoro-3-[(L-pyrrolidin-2-yl)carbonylamino]-1H-indazol-6-yl}phenyl)-3-(2-fluoro-5-trifluoromethylphenyl)urea]
- IC50 [1]: 1050 nM
- IC50 [2]: 626 nM
- IC50 [3]: 3380 nM

SMILES: O=C(Nc1ccc(-c2c(F)c(F)c3c(NC(=O)c4ccsc4)n[nH]c3c2F)cc1)Nc1cc(C(F)(F)F)ccc1F [Example 9, 1-(4-{4,5,7-Trifluoro-3-[(thiophen-3-yl)carbonylamino]-1H-indazol-6-yl}-phenyl)-3-(2-fluoro-5-trifluoromethylphenyl)urea]
- IC50 [1]: 693 nM
- IC50 [2]: 46 nM
- IC50 [3]: 1750 nM

SMILES: O=C(Nc1ccccc1)Nc1ccc(-c2ccc3c(NC(=O)c4ccsc4)n[nH]c3c2F)cc1 [Example 12, 1-(4-{7-Fluoro-3-[(thiophen-3-yl)carbonylamino]-1H-indazol-6-yl}phenyl)-3-phenylurea]
- IC50 [1]: 2770 nM
- IC50 [2]: 36 nM
- IC50 [3]: 14 nM

SMILES: CC(C)(C)c1cc(NC(=O)Nc2ccc(-c3ccc4c(N)n[nH]c4c3F)cc2)no1 [Example 21, 1-[4-(3-Amino-7-fluoro-1H-indazol-6-yl)phenyl]-3-(5-tert-butylisoxazol-3-yl)urea]
- IC50 [1]: 85 nM
- IC50 [2]: 174 nM
- IC50 [3]: 68 nM

SMILES: Nc1n[nH]c2c(F)c(-c3ccc(NC(=O)Nc4cc(C(F)(F)F)ccc4F)cc3)ccc12 [Example 7, 1-[4-(3-Amino-7-fluoro-1H-indazol-6-yl)phenyl]-3-(2-fluoro-5-trifluoro-methylphenyl)urea hydrochloride]
- IC50 [1]: 122 nM
- IC50 [2]: 51 nM
- IC50 [3]: 172 nM

SMILES: O=C(Nc1ccc(-c2ccc3c(NC(=O)c4ccsc4)n[nH]c3c2F)cc1)Nc1ccccc1F [Example 14, 1-(4-{7-Fluoro-3-[(thiophen-3-yl)carbonylamino]-1H-indazol-6-yl}phenyl)-3-(2-fluorophenyl)urea]
- IC50 [1]: 4220 nM
- IC50 [2]: 50 nM
- IC50 [3]: 23 nM

SMILES: O=CNc1n[nH]c2c(F)c(-c3ccc(NC(=O)Nc4cc(C(F)(F)F)ccc4F)cc3)ccc12 [Example 28, 1-(4-(7-Fluoro-3-formylamino-1H-indazol-6-yl}phenyl)-3-(2-fluoro-5-tri-fluoromethylphenyl)urea]
- IC50 [1]: 164 nM
- IC50 [2]: 176 nM
- IC50 [3]: 520 nM

SMILES: Nc1n[nH]c2c(F)c(-c3ccc(NC(=O)Nc4ccccc4)cc3)ccc12 [Example 20, 1-[4-(3-Amino-7-fluoro-1H-indazol-6-yl)phenyl]-3-phenylurea]
- IC50 [2]: 502 nM
- IC50 [3]: 63 nM

SMILES: O=C(Nc1ccc(-c2ccc3c(NC(=O)c4ccsc4)n[nH]c3c2F)cn1)Nc1cc(C(F)(F)F)ccc1F [Example 24, 1-(5-{7-Fluoro-3-[(thiophen-3-yl)carbonylamino]-1H-indazol-6-yl}pyridin-2-yl)-3-(2-fluoro-5-trifluoromethylphenyl)urea]
- IC50 [2]: 229 nM

Further compounds by falling IC50 [2], results first:

- IC50 [1]: 1940 nM
- IC50 [2]: 5850 nM
- IC50 [3]: 143 nM
SMILES: Nc1n[nH]c2c(F)c(-c3ccc(NC(=O)Nc4ccccc4F)cc3)ccc12 [Example 22, 1-[4-(3-Amino-7-fluoro-1H-indazol-6-yl)phenyl]-3-(2-fluorophenyl)urea]

- IC50 [1]: 79 nM
- IC50 [2]: 143 nM
- IC50 [3]: 335 nM
SMILES: CC(=O)Nc1n[nH]c2c(F)c(-c3ccc(NC(=O)Nc4cc(C(F)(F)F)ccc4F)cc3)ccc12 [Example 27, 1-(4-{7-Fluoro-3-acetylamino-1H-indazol-6-yl}phenyl)-3-(2-fluoro-5-trifluoromethylphenyl)urea]

- IC50 [1]: 29 nM
- IC50 [2]: 31 nM
- IC50 [3]: 65 nM
SMILES: CC(C)(C)c1cc(NC(=O)Nc2ccc(-c3ccc4c(NC(=O)c5ccsc5)n[nH]c4c3F)cc2)no1 [Example 13, 1-(4-{7-Fluoro-3-[(thiophen-3-yl)carbonylamino]-1H-indazol-6-yl}phenyl)-3-(5-tert-butylisoxazol-3-yl)urea]

- IC50 [1]: 166 nM
- IC50 [2]: 18 nM
- IC50 [3]: 171 nM
SMILES: O=C(Nc1ccc(-c2ccc3c(NC(=O)c4ccsc4)n[nH]c3c2)cc1)Nc1cc(C(F)(F)F)ccc1F [Example 10, 1-(4-[3-[(Thiophen-3-yl)carbonylamino]-1H-indazol-6-yl}phenyl)-3-(2-fluoro-5-trifluoromethylphenyl)urea]

- IC50 [1]: 15 nM
- IC50 [2]: 16 nM
- IC50 [3]: 296 nM
SMILES: Cc1cc(-c2ccc3c(NC(=O)c4ccsc4)n[nH]c3c2F)ccc1NC(=O)Nc1cc(C(F)(F)F)ccc1F [Example 23, 1-(4-{7-Fluoro-3-[(thiophen-3-yl)carbonylamino]-1H-indazol-6-yl}-2-methylphenyl)-3-(2-fluoro-5-trifluoromethylphenyl)urea]

- IC50 [1]: 19 nM
- IC50 [2]: 3 nM
- IC50 [3]: 142 nM
SMILES: Cc1ccc(-n2nc(C(C)(C)C)cc2NC(=O)Nc2ccc(-c3ccc4c(NC(=O)c5ccsc5)n[nH]c4c3F)cc2)cc1 [Example 16, 1-(4-{7-Fluoro-3-[(thiophen-3-yl)carbonylamino]-1H-indazol-6-yl}phenyl)-3-(5-tert-butyl-2-p-tolyl-2H-pyrazol-3-yl)urea]
